Converted amounts (≈) assume the structure as drawn. Read-outs that look alike come from different tables or passages of the source.
Legend:
Format in all cases: physicochemical
[1] = Stability at 60° C. and 40° C. at 75% relative humidity for 9 days (UPLC purity, XRPD); conditions: for Purity −3 d: 3 days; for Purity −9 d: 9 days; for XRPD: crystal form check
Description: Compound 1 and Compound 2 were evaluated for stability at 60° C. and 40° C. at 75% relative humidity for 9 days. At 0, 3, and 9 days, the samples were dissolved with diluent to prepare a solution for purity analysis by UPLC. Solid samples were also analyzed by XRPD to check the crystal form.

[2] = Solubility of Compound 1 in solvents
Description: Compound 1 is insoluble in n-heptane and water (<1 mg/mL) and soluble (>100 mg/mL) in methanol, ethanol, acetone, tetrahydrofuran, methyl ethyl ketone, ethyl acetate, acetonitrile, isobutanol, isopropyl alcohol and isopropyl acetate. Compound 1 has a solubility of about 60 mg/mL in methyl t-butyl ether.

[3] = Dynamic Vapor Sorption (DVS); conditions: for water uptake at 80% RH: 80% relative humidity
Description: Dynamic Vapor Sorption (DVS) Moisture sorption/desorption data was collected on a DVS Intrinsic PLUS (SMS, UK). The sample was placed into a tared sample chamber and automatically weighed. The sample was dried at 40° C./0%0 RH until the dm/dt was less than 0.00200 and cooled to 25° C. [table]

[4] = Comparison dissolution trials in water and biorelevant media; conditions: for solubility at 0.5 h: read-out: Solubility (mg/mL) 0.5 h; for solubility at 2 h: read-out: Solubility (mg/mL) 2 h; for solubility at 24 h: read-out: Solubility (mg/mL) 24 h
Description: Comparison dissolution trials were performed on Compounds 1 and 2. About 20 mg of each sample was weighed into a sample vial and then 4 mL of media was added to make a suspension. All suspensions were shaken at 37° C. with a rate of 200 rpm. […] He pH of the filtrate was measured, and the filter cake was analyzed by XRPD. […] In biorelevant dissolution media FaSSIF and FeSSIF, the solubility of the Compound 1 and Compound 2 were similar.

[5] = Slurry experiments of amorphous hydrochloride; conditions: one day, XRPD
Description: An amorphous solid state form of (S)—N-(3-(2-(((R)-1-hydroxypropan-2-yl)amino)-6-morpholinopyridin-4-yl)-4-methylphenyl)-3-(2,2,2-trifluoroethyl)pyrrolidine-1-carboxamide hydrochloride is attainable. Amorphous (S)—N-(3-(2-(((R)-1-hydroxypropan-2-yl)amino)-6-morpholinopyridin-4-yl)-4-methylphenyl)-3-(2,2,2-trifluoroethyl)pyrrolidine-1-carboxamide hydrochloride was formed by rapid evaporation of 15 mg of Compound 2 dissolved in 0.5 mL of methanol. The solid was confirmed to be amorphous by XRPD. Slurry of amorphous (S)—N-(3-(2-(((R)-1-hydroxypropan-2-yl)amino)-6-morpholinopyridin-4-yl)-4-methylphenyl)-3-(2,2,2-trifluoroethyl)pyrrolidine-1-carboxamide hydrochloride in 0.5 mL of the solvents in Table 13 were prepared. Each suspension was stirred for one day at 50° C. and at RT. Each suspension was filtered and analyzed by XRPD. In each experiment, conversion from amorphous (S)—N-(3-(2-(((R)-1-hydroxypropan-2-yl)amino)-6-morpholinopyridin-4-yl)-4-methylphenyl)-3-(2,2,2-trifluoroethyl)pyrrolidine-1-carboxamide hydrochloride to crystalline Compound 2 was observed.

[6] = simulated gastric fluid, thermodynamic from solid, SGF, 37° C.
[7] = thermodynamic from solid, FaSSIF, 37° C.
[8] = thermodynamic from solid, FeSSIF, 37° C.
[9] = thermodynamic from solid, Water, 37° C.

For `Cc1ccc(NC(=O)N2CC[C@@H](CC(F)(F)F)C2)cc1-c1cc(N[C@H](C)CO)nc(N2CCOCC2)c1` [Compound 1, (S)—N-(3-(2-(((R)-1-hydroxypropan-2-yl)amino)-6-morpholinopyridin-4-yl)-4-methylphenyl)-3-(2,2,2-trifluoroethyl)pyrrolidine-1-carboxamide], the “Purity −0 d (Area %)” value ([1]; 0 days (initial), UPLC) was 99.43 Area %, the “Purity −3 d” value ([1]; 40° C./75% RH, UPLC) was 99.42 Area % and the “Purity −9 d” value ([1]; 40° C./75% RH, UPLC) was 99.40 Area %. The XRPD ([1]; 40° C./75% RH) was “No change”, the “Purity −3 d” value ([1]; 60° C., UPLC) was 99.39 Area % and the “Purity −9 d” value ([1]; 60° C., UPLC) was 99.42 Area %. For the same molecule, the XRPD ([1]; 60° C.) was “No change”, the solubility ([2]; acetone, organic solvent or mixture) was over 100000 µg/mL and the solubility ([2]; acetonitrile, organic solvent or mixture) was over 100000 µg/mL. The solubility ([2]; ethanol, organic solvent or mixture) was over 100000 µg/mL, the solubility ([2]; ethyl acetate, organic solvent or mixture) was over 100000 µg/mL and the solubility ([2]; isobutanol, organic solvent or mixture) was over 100000 µg/mL. For the same molecule, the solubility ([2]; isopropyl acetate, organic solvent or mixture) was over 100000 µg/mL, the solubility ([2]; isopropyl alcohol, organic solvent or mixture) was over 100000 µg/mL and the solubility ([2]; methanol, organic solvent or mixture) was over 100000 µg/mL. The solubility ([2]; methyl ethyl ketone, organic solvent or mixture) was over 100000 µg/mL, the solubility ([2]; methyl t-butyl ether, organic solvent or mixture) was about 60000 µg/mL (≈ 115000 µM) and the solubility ([2]; n-heptane, organic solvent or mixture) was under 1000 µg/mL. For the same molecule, the solubility ([2]; tetrahydrofuran, organic solvent or mixture) was over 100000 µg/mL, the solubility ([2]; water) was under 1000 µg/mL and the hygroscopicity ([3]; DVS) was “slightly hygroscopic”. For the same molecule, the “water uptake at 80% RH” value ([3]; DVS, 25° C.) was 2%, the “solid form after DVS testing” value ([3]; after DVS testing) was “remained amorphous” and the solid form conversion ([4]; FaSSGF, filter cake by XRPD) was “converted to Compound 2”. The “solubility of Compound 1 and Compound 2 compared” value ([4]; FaSSIF and FeSSIF) was “similar”, the “pH of the filtrate” value ([4]; Water medium) was “(pH 6.4)” and the solubility at 0.5 h [4, 6] was 0.48 mg/mL (≈ 920 µM). The solubility at 2 h [4, 6] was 0.35 mg/mL (≈ 671 µM), the solubility at 24 h [4, 6] was 0.83 mg/mL (≈ 1590 µM) and the solubility at 0.5 h [4, 7] was 0.024 mg/mL (≈ 46 µM). The solubility at 2 h [4, 7] was 0.022 mg/mL (≈ 42.2 µM), the solubility at 24 h [4, 7] was 0.018 mg/mL (≈ 34.5 µM) and the solubility at 0.5 h [4, 8] was 0.15 mg/mL (≈ 288 µM). The solubility at 2 h [4, 8] was 0.17 mg/mL (≈ 326 µM), the solubility at 24 h [4, 8] was 0.15 mg/mL (≈ 288 µM) and the solubility at 0.5 h [4, 9] was 0.004 mg/mL (≈ 7.67 µM). The solubility at 2 h [4, 9] was 0.004 mg/mL (≈ 7.67 µM), the solubility at 24 h [4, 9] was 0.009 mg/mL (≈ 17.3 µM) and the solubility ([4]; thermodynamic from solid, water, 37° C.) was under 9 µg/mL.
With `Br.Cc1ccc(NC(=O)N2CC[C@@H](CC(F)(F)F)C2)cc1-c1cc(N[C@H](C)CO)nc(N2CCOCC2)c1` [Compound 3, (S)—N-(3-(2-(((R)-1-hydroxypropan-2-yl)amino)-6-morpholinopyridin-4-yl)-4-methylphenyl)-3-(2,2,2-trifluoroethyl)pyrrolidine-1-carboxamide hydrobromide] the hygroscopicity ([3]; DVS) was “slightly hydroscopic”, the “water uptake at 80% RH” value ([3]; DVS, 25° C.) was 0.27% and the “water uptake at 90% relative humidity” value ([3]; DVS, 25° C., 90% relative humidity) was 0.45%.
In the case of `Cc1ccc(NC(=O)N2CC[C@@H](CC(F)(F)F)C2)cc1-c1cc(N[C@H](C)CO)nc(N2CCOCC2)c1.Cl` [amorphous Compound 2, (S)—N-(3-(2-(((R)-1-hydroxypropan-2-yl)amino)-6-morpholinopyridin-4-yl)-4-methylphenyl)-3-(2,2,2-trifluoroethyl)pyrrolidine-1-carboxamide hydrochloride], the “Resulting Solid State Form” value ([5]; slurry in Acetone, 50° C.) is reported as “Form I”, the “Resulting Solid State Form” value ([5]; slurry in Acetone, RT) is reported as “Form I” and the “Resulting Solid State Form” value ([5]; slurry in Ethanol, 50° C.) is reported as “Form I”. The “Resulting Solid State Form” value ([5]; slurry in Ethanol, RT) was “Form I”, the “Resulting Solid State Form” value ([5]; slurry in Ethyl acetate, 50° C.) was “Form I” and the “Resulting Solid State Form” value ([5]; slurry in Ethyl acetate, RT) was “Form I”. The “Resulting Solid State Form” value ([5]; slurry in Water, 50° C.) was “Form I”, the “Resulting Solid State Form” value ([5]; slurry in Water, RT) was “Form I” and the “Resulting Solid State Form” value ([5]; slurry in n-Heptane, 50° C.) was “Form I”. For the same molecule, the “Resulting Solid State Form” value ([5]; slurry in n-Heptane, RT) was “Form I”.

Source: patent US12692248B2, “Solid state forms of (S)-N-(3-(2-(((R)-1-hydroxypropan-2-yl)amino)-6-morpholinopyridin-4-yl)-4-methylphenyl)-3-(2,2,2-trifluoroethyl)pyrrolidine-1-carboxamide and salts thereof” (PIERRE FABRE MEDICAMENT, priority 2021, dated 2026)
